We go through four compounds from US11464749B2, “Bismuth-thiol compositions and methods of use” (Microbion Corporation, priority 2018, dated 2022).

The structures appear in SMILES notation. Values after ≈ are worked out from the molar mass of the structure shown. Where two headings read alike, the source gives them in different places.

The test system of one data set is M. abscessus complex. The data set is described as follows: MIC against CF bacterial strains (Example 5). It counts as cell-based, Mycobacterium abscessus. To be noted: Mycobacteroides abscessus. On the procedure:
A range of CF-isolated strains of Mycobacterium avium and Mycobacterium abscessus were included; which allows for understanding of the activity against non-tubercular Mycobacteria (NTM). Two distinct bismuth-thiol compounds were evaluated, including BisEDT and BisBDT. […] The CF-isolates of greater clinical relevance, including both M abscessus spp. and Burkholderia spp., were both consistently found to be much more susceptible to BisEDT and BisBDT.

The test system of data set [1] is MABSC / M. abscessus biofilms. The data set is described as follows: Activity against CF-isolate biofilms. The data set is classed as cell-based. To be noted: AMT0130-8 (MABSC CF-isolate).
For another data set, the system named is C. albicans. The data set is described as follows: Broth microdilution MIC, yeast (Example 11). The data set is classed as cell-based.
A further data set relates to A. fumigatus. The data set is described as follows: Broth microdilution antifungal susceptibility (Example 13). It counts as cell-based. The following applies: for MIC: Aspergillus fumigatus. Background: Broth dilution looks for growth in wells or tubes with falling amounts of substance.
The subject of another data set is A. flavus. Described as above. The data set is classed as cell-based. The following applies: Aspergillus flavus.
For a further data set, the system named is Enterobacteriaceae. The data set can be described thus: Broth microdilution MIC (Example 11). To be noted: Escherichia coli, read-out: MIC values.
For data set [2], the system named is P. aeruginosa and A. baumannii. The data set can be described thus: Broth microdilution MIC (Example 11). The following applies: read-out: MIC values.
Data set [3] concerns vancomycin-intermediate Staphylococcus aureus (VISA). The data set is described as follows: Broth microdilution MIC (Example 12). To be noted: Staphylococcus aureus.
Data set [4] has as its system P. aeruginosa. The data set can be described thus: MIC against CF bacterial strains (Example 5). The following applies: Pseudomonas aeruginosa.
Another data set deals with S. maltophilia. The data set can be described thus: MIC against CF bacterial strains (Example 5). To be noted: Stenotrophomonas maltophilia.
For data set [5], the system named is B. cenocepacia (B cepacia complex). The data set can be described thus: MIC against CF bacterial strains (Example 5). To be noted: Burkholderia cenocepacia.
Another data set relates to S. aureus ATCC 29213. The data set is described as follows: Broth microdilution MIC, ATCC QC organism (Example 12). The following applies: Staphylococcus aureus, ATCC29213.
Data set [6] is described as follows: Single-dose rat PK comparing inhalation, IV and oral dosing. The protocol: Blood Collection for Bioanalytical Analysis: Following exposure, non-terminal blood collections were performed on 2 animals per sex at 0.5, 2, and 8 hours post exposure. Approximately 1 mL of systemic whole blood was collected by jugular vein into tubes containing K3EDTA as an anticoagulant. The tubes were flash frozen with liquid nitrogen stored without processing at −70 to −90° C. until shipping for analysis using ICP-MS assay for quantitation of bismuth as a surrogate for BisEDT.
Increasing the dose and interval leads to larger fluctuations in tissue and blood levels between peak (after dosing) and trough levels (prior to dosing).

Another data set relates to E. coli ATCC 25922. The following applies: control strain ATCC 25922; per CLSI M100-S24 or provided by Microbion; cited from earlier work.
A short description of data set [7]: Particle size distribution of exposure aerosols (In-Tox Mercer Impactor). To be noted: rat efficacy study exposure atmospheres.
For the next data set, the system named is Burkholderia spp. The following applies: initial MIC testing.
Data set [8] concerns P. aeruginosa. The data set can be described thus: Broth microdilution MIC (Example 10). To be noted: initial MIC testing.
The test system of another data set is Pseudomonas aeruginosa. To be noted: P. aeruginosa MMX 103 (ATCC 27853); CLSI QC ranges shown in parenthesis; cited from earlier work.
Where [9] appears, read: 24 hours after single inhalation dose.
[10] abbreviates: 4 days (96 hrs) after single inhalation dose.

`CC(S)C(C)S.[Bi]` (stereo not drawn) [BisBDT, bismuth-2,3-butanedithiol]: the MIC in the data set on M. abscessus complex (AMT0068-40, M abscessus/massiliense complex, read-out: MIC) was 0.06 µg/mL; against M. abscessus complex (AMT 0068-40, MABSC CF isolate, macrolide-S, amikacin-I), 0.125 µg/mL; against M. abscessus complex (AMT 0089-5, MABSC CF isolate, macrolide-R, amikacin-R) it was 0.125 µg/mL; in the data set with M. abscessus complex (AMT0119-7, M abscessus/massiliense complex, read-out: MIC) it was under 0.03 µg/mL; in the data set with M. abscessus complex (AMT 0119-7, MABSC CF isolate, macrolide-S, amikacin-I) it was 0.125 µg/mL; with M. abscessus complex (AMT0130-8, M abscessus/massiliense complex, read-out: MIC), under 0.03 µg/mL. For the same compound, the MIC in the data set with M. abscessus complex (AMT 0130-8, MABSC CF isolate, macrolide-S, amikacin-I, read-out: MIC) is 0.0625 µg/mL; with M. abscessus complex (AMT 0136-10, MABSC CF isolate, macrolide-R, amikacin-R, read-out: MIC), 0.0625 µg/mL; with M. abscessus complex (AMT153-9, M abscessus/massiliense complex, read-out: MIC), under 0.03 µg/mL; against M. abscessus complex (AMT 0153-9, MABSC CF isolate, macrolide-S, amikacin-I), 0.125 µg/mL; against M. abscessus complex (AMT 0157-14, MABSC CF isolate, macrolide-R, amikacin-I), 0.125 µg/mL; against M. abscessus complex (AMT 0166-29, MABSC CF isolate, macrolide-R, amikacin-R), 0.125 µg/mL. Further, the MIC is 0.125 µg/mL in the data set with M. abscessus complex (AMT0493-2, M abscessus/massiliense complex, Amikacin resistant, read-out: MIC); 0.5 µg/mL against M. abscessus complex (AMT 0493-2, MABSC CF isolate, macrolide-S, amikacin-R); under 0.03 µg/mL in the data set with M. abscessus complex (ATCC19977, ATCC 19977, M abscessus/massiliense complex, Macrolide resistant (inducible), read-out: MIC); 0.25 µg/mL in the data set with M. abscessus complex (ATCC19977, ATCC 19977, M. abscessus abscessus, ATCC type strain, read-out: MIC); 2, 2 μg/mL against C. albicans (C. albicans MMX 7055, Sensitive, 48 hr); 2 µg/mL in the data set with C. albicans (Candida albicans, 24 h). The MIC against C. albicans (Candida albicans, 48 h) worked out at 2 µg/mL; with A. fumigatus (ATCC204305, A. fumigatus ATCC 204305, 24 hr, read-out: MIC0 24 hr), 8 µg/mL; in the data set with A. fumigatus (ATCC204305, A. fumigatus ATCC 204305, 48 hr, read-out: MEC at 48 hr (MIC0 not observed)), 4 µg/mL; with A. fumigatus (A. fumigatus ATCC MYA-3626, 48 hr, read-out: MIC0 48 hr), 4 µg/mL; with A. fumigatus (A. fumigatus MMX 5939, 24 hr, read-out: MIC0 24 hr), 2 µg/mL; with A. fumigatus (A. fumigatus MMX 5939, 48 hr, read-out: MEC at 48 hr (MIC0 not observed)), 4 µg/mL. Further, the MIC is 1 µg/mL in the data set with A. fumigatus (read-out: MIC0 48 hr); 1 µg/mL with A. flavus (ATCC22546, A. flavus ATCC 22546, 24 hr, read-out: MIC0 24 hr); 2 µg/mL in the data set with A. flavus (ATCC22546, A. flavus ATCC 22546, 48 hr, read-out: MIC0 48 hr); 4 µg/mL in the data set on A. flavus (ATCC204304, A. flavus ATCC 204304, 24 hr, read-out: MIC0 24 hr); 4 µg/mL in the data set on A. flavus (ATCC204304, A. flavus ATCC 204304, 48 hr, read-out: MEC at 48 hr (MIC0 not observed)); 8 µg/mL with A. flavus (A. flavus MMX 7935, 24 hr, read-out: MIC0 24 hr). Further, the MIC in the data set with A. flavus (A. flavus MMX 7935, 48 hr, read-out: MIC0 48 hr) is 8 µg/mL; in the data set on Enterobacteriaceae, 0.5 to 2 µg/mL; in data set [2], 0.5 to 2 µg/mL; in [3] (NRS1 / VISA), 0.12 µg/mL; in data set [3] (NRS2 / VISA), at most 0.06 µg/mL; in [3] (NRS3 / VISA), 0.25 µg/mL. The MIC is 0.25 µg/mL in data set [3] (NRS4 / VISA); 0.12 µg/mL in [3] (NRS13 / VISA); 0.25 µg/mL in data set [3] (NRS18 / VISA); 0.25 µg/mL in data set [3] (NRS22 / VISA); 1 µg/mL in data set [3] (NRS24 / VISA); 0.25 µg/mL in data set [3] (NRS27 / VISA). Besides, the MIC against P. aeruginosa [4] (strain AGR1) amounted to 1 µg/mL; in the data set on P. aeruginosa [4] (strain AGR14, Multi-drug resistant), 1 µg/mL; in the data set with P. aeruginosa [4] (strain MR14, Multi-drug resistant), 1 µg/mL; in the data set on S. maltophilia, 0.13 µg/mL; in data set [5], 4 µg/mL; against S. aureus ATCC 29213 it was 0.12 µg/mL. In [1], the “reduction in biofilm cell viability” value is “only very modest reductions”. Besides, the “MIC0 24 hr” value was 2 µg/mL in the data set on A. fumigatus (A. fumigatus ATCC MYA-3626, 24 hr) and 2 µg/mL against A. fumigatus (A. fumigatus MMX 5934, 24 hr). Moreover, the “MEC at 48 hr (MIC0 not observed)” value in the data set on A. fumigatus (A. fumigatus MMX 5934, 48 hr) was found to be 4 µg/mL.
In general, Kp refers to tissue or fluid exposure divided by exposure in the circulation. Consider `C1C[S][Bi]([S]CC[S][Bi]2[S]CC[S]2)[S]1` [BisEDT, bismuth-1,2-ethanedithiol], for which the “lung levels after IV dosing vs inhalation group” value in data set [6] (100 μg/kg IV) is listed as under 5%. For the same compound, the tolerability result in [6] (100 μg/kg inhalation and IV and 250 μg/kg oral) was “tolerated”. The “lung levels after oral dosing” value in [6] (250 μg/kg oral) was “no lung levels”. Further, the “equated concentration in lung fluid” value in [6] (setting [9]) amounted to 123 µg/mL; in data set [6] (setting [10]), 78 µg/mL. In addition, the lung tissue concentration is reported as 4,093 ng/g in data set [6] (setting [9]) and 2,600 ng/g in [6] (setting [10]). Further, in [6] (IV dosing), the “duration of initial distribution into tissues” value was determined as 18 h. Further, the Kp in [6] (both, lung versus whole blood, inhaled, 100 μg/kg) was about 10. The “Expected MIC: goal (acceptable range)” value in the data set on E. coli ATCC 25922 is reported as 1 (0.5-2) mcg/mL. The “MMAD of exposure aerosol” value in [7] was 1.54 μm.
For `C[C@@H](O)[C@H]1C(=O)N2C(C(=O)O)=C(S[C@@H]3CN[C@H](C(=O)N(C)C)C3)[C@H](C)[C@H]12` [MEM], the MIC was determined as 2 µg/mL (≈ 5.22 µM) in the data set with Burkholderia spp. (B. multivorans isolate 1580 (CIP-R)); 4 µg/mL (≈ 10.4 µM) in the data set with Burkholderia spp. (B. multivorans isolate 1791); 8 µg/mL (≈ 20.9 µM) with Burkholderia spp. (B. multivorans isolate 1795 (MEM-I, CIP-R)); 2 µg/mL (≈ 5.22 µM) with Burkholderia spp. (B. multivorans isolate 5665 (CIP-I)); 2 µg/mL (≈ 5.22 µM) with Burkholderia spp. (B. multivorans isolate 8952 (CIP-I)); 1 µg/mL (≈ 2.61 µM) in the data set on P. aeruginosa [8] (P. aeruginosa isolate 103). Besides, the MIC in the data set with P. aeruginosa [8] (P. aeruginosa isolate 1497 (TOB-R, AMK-R, CIP-I, AZT-R, COL-R)) is 0.06 µg/mL (≈ 0.156 µM); against P. aeruginosa [8] (P. aeruginosa isolate 1530 (TOB-R, AMK-R, CIP-R)), 0.5 µg/mL (≈ 1.3 µM); against P. aeruginosa [8] (P. aeruginosa isolate 1553 (TOB-R, AMK-R, CIP-R)) it was 0.5 µg/mL (≈ 1.3 µM); in the data set with P. aeruginosa [8] (P. aeruginosa isolate 6322 (MEM-R, TOB-R, AMK-R, CIP-R, AZT-R)), 16 µg/mL (≈ 41.7 µM); in the data set with P. aeruginosa [8] (P. aeruginosa isolate 6977 (MEM-I, TOB-R, CIP-R, AZT-I)), 4 µg/mL (≈ 10.4 µM); against P. aeruginosa [8] (P. aeruginosa isolate 7745 (MEM-R, CIP-R, AZT-R)), 16 µg/mL (≈ 41.7 µM). For the same compound, the MIC with P. aeruginosa [8] (P. aeruginosa isolate 7754 (MEM-R, TOB-R, CIP-R, AZT-I)) was found to be 32 µg/mL (≈ 83.4 µM); in the data set on P. aeruginosa [8] (P. aeruginosa isolate 7762 (MEM-I, CIP-I)), 4 µg/mL (≈ 10.4 µM); in the data set on P. aeruginosa [8] (P. aeruginosa isolate 7871 (MEM-R, AZT-I)), 8 µg/mL (≈ 20.9 µM); against P. aeruginosa [8] (P. aeruginosa isolate 7874) it was 1 µg/mL (≈ 2.61 µM); against P. aeruginosa [8] (P. aeruginosa isolate 7886 (MEM-R, CIP-R, AZT-R)) it was 32 µg/mL (≈ 83.4 µM); with P. aeruginosa [8] (P. aeruginosa isolate 8797 (MEM-R, TOB-R, AMK-R, CIP-R, AZT-R, COL-R)) it was 32 µg/mL (≈ 83.4 µM). In addition, the MIC stood at 64 µg/mL (≈ 167 µM) in the data set with P. aeruginosa [8] (P. aeruginosa isolate 8798 (MEM-R, TOB-R, AMK-R, CIP-R, AZT-R, COL-R)) and 0.5 µg/mL (≈ 1.3 µM) in the data set with P. aeruginosa [8] (P. aeruginosa isolate 9108 (CIP-R, AZT-I)).
On to `C[C@@H](O)[C@H]1C(=O)N2C(C(=O)O)=C(S[C@@H]3CN[C@H](C(=O)N(C)C)C3)[C@H](C)[C@H]12` [Meropenem, reference compound], for which the “CLSI QC range of MIC” value with Pseudomonas aeruginosa is on record as “(0.25-1) μg/mL”.
